Source: publication PMC11767309 (Molecules, 2025)

Columns and labels:
[1] = biological target: T1, acetylcholinesterase (AChE) (Electrophorus electricus, UniProt O42275); experiment: biochemical; design: species or system electric eel; details: read-out: AChE Inhibition (%)
T1 construct: purchased Sigma Aldrich (St. Louis, MO, USA)

[2] = biological target: T2, butyrylcholinesterase (BChE) (Equus caballus, UniProt P81908); experiment: biochemical; design: species or system equine; details: for IC50: BChE IC50 (μM)
T2 construct: butyrylcholinesterase (BChE, E.C. from equine serum); purchased Sigma Aldrich (St. Louis, MO, USA); host or cells: equine serum

[3] = Complex formation with Fe^3+, spectrophotometric titration; assay type: physicochemical; details: for Molar absorptivities at the longer-wavelength band maxima, ε: free ligand; for absorbance vs. ligand concentration plot: titration at constant Fe(III) content; for absorptivity of the complex higher than that of the ligand / molar absorptivity of the complex formed: complex with Fe^3+; for molar absorptivity of the complex formed: slope of absorbance vs. ligand concentration plot
Description: For this purpose, the following compounds were selected: 1, 3, 6 and 7. The Fe^3+ ions strongly hydrolyze, decreasing the pH of the aqueous system; thus, acidic solutions were used to study the possible complex formation via spectrophotometric titrations.
The absorption spectra used to determine the molar absorptivity and to evaluate the complex formation constant were recorded with a Specord S600 spectrophotometer (Analytic Jena GmbH, Jena, Germany) in the 190–900 nm wavelength range. During the titration, the ligand concentration was increased at a constant Fe(III) content.

BChE = details: selectivity BChE over AChE; cited from earlier work

T1 sequence (O42275 24-633): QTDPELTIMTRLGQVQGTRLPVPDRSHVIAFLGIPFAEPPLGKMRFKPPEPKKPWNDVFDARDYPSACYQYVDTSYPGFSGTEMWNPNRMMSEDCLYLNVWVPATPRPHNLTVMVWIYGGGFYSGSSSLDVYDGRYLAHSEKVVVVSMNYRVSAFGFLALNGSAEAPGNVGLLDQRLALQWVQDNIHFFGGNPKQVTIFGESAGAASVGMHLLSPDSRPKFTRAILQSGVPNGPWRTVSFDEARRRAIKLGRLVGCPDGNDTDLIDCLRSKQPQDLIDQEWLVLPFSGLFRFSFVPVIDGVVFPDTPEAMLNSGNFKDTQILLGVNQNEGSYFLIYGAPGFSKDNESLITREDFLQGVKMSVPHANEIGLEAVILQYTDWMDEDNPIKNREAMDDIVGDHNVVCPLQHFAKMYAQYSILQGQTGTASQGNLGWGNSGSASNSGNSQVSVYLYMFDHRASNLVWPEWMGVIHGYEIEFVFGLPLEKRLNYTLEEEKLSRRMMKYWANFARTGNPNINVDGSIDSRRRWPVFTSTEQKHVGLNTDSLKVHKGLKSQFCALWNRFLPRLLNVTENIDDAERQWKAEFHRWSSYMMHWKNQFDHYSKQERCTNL
T2 sequence (P81908 whole entry): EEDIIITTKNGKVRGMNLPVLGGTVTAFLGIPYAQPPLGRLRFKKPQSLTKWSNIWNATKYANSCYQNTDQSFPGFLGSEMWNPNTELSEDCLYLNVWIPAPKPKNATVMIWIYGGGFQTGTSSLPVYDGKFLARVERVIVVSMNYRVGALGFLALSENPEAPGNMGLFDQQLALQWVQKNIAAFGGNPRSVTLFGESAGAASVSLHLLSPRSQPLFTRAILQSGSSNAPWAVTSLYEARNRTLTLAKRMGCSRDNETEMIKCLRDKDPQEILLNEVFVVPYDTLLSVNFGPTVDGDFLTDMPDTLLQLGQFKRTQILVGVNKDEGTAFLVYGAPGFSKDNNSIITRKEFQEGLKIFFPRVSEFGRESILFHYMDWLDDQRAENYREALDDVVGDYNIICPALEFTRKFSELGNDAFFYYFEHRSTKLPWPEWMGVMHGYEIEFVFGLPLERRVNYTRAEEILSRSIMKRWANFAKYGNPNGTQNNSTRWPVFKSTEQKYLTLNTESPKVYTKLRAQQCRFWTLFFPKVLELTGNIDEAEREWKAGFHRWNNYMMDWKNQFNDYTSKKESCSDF

| Compound | inhibition at 100 µM [1] | IC50 [2] | inhibition at 100 µM ([2]; read-out: BChE Inhibition (%)) | also measured |
| --- | --- | --- | --- | --- |
| Cc1ccc(OC(=O)N(C)C)c(/C=C/c2cccs2)c1 [Compound 2, (E)-4-methyl-2-(2-(thiophen-2-yl)vinyl)phenyl dimethylcarbamate] | 16.7% | 1.05 ± 0.09 µM | – | inhibition at 10 µM ([2]; read-out: BChE Inhibition (%)): 85% |
| Cc1ccc(/C=C/c2ccccc2OC(=O)N(C)C)s1 [Compound 7, (E)-2-(2-(5-methylthiophen-2-yl)vinyl)phenyl dimethylcarbamate] | 17.7% | 0.38 ± 0.01 µM | – | inhibition at 25 µM ([2]; read-out: BChE Inhibition (%)): 86.3%; Molar absorptivities at the longer-wavelength band maxima, ε [3]: 19,410 M^–1cm^–1; absorbance vs. ligand concentration plot [3]: no deviation from the straight line |
| COc1ccc(OC(=O)N(C)C)c(/C=C/c2cccs2)c1 [Compound 5, (E)-4-methoxy-2-(2-(thiophen-2-yl)vinyl)phenyl dimethylcarbamate] | 11% | 11.6 ± 0.18 µM | 84% | – |
| CN(C)C(=O)Oc1ccccc1/C=C/c1cccs1 [Compound 1, (E)-2-(2-(thiophen-2-yl)vinyl)phenyl dimethylcarbamate] | 30% | 0.12 ± 0.09 µM | – | inhibition at 50 µM ([2]; read-out: BChE Inhibition (%)): 85%; Molar absorptivities at the longer-wavelength band maxima, ε [3]: 22,570 M^–1cm^–1; absorbance vs. ligand concentration plot [3]: no deviation from the straight line |
| Cc1ccc(/C=C/c2cc(Cl)ccc2OC(=O)N(C)C)s1 [Compound 10, (E)-4-chloro-2-(2-(5-methylthiophen-2-yl)vinyl)phenyl dimethylcarbamate] | 27% | 23.2 ± 3.78 µM | 85.7% | – |
| cymserine | – | – | – | more effective as a BChE inhibitor compared to AChE (BChE): 15 times |
| Cc1ccc(/C=C/c2cc(F)ccc2OC(=O)N(C)C)s1 [Compound 9, (E)-4-fluoro-2-(2-(5-methylthiophen-2-yl)vinyl)phenyl dimethylcarbamate] | 23.6% | 15 ± 2.32 µM | 85.2% | – |
| CN(C)C(=O)Oc1ccc(Cl)cc1/C=C/c1cccs1 [Compound 4, (E)-4-chloro-2-(2-(thiophen-2-yl)vinyl)phenyl dimethylcarbamate] | 35% | 2.83 ± 0.03 µM | – | inhibition at 25 µM ([2]; read-out: BChE Inhibition (%)): 85.3% |
| CN(C)C(=O)Oc1cccc(/C=C/c2cccs2)c1 [Compound 11, (E)-3-(2-(thiophen-2-yl)vinyl)phenyl dimethylcarbamate] | 19% | 11.4 ± 2.48 µM | 83.4% | – |
| COc1ccc(/C=C/c2cccs2)c(OC(=O)N(C)C)c1 [Compound 6, (E)-5-methoxy-2-(2-(thiophen-2-yl)vinyl)phenyl dimethylcarbamate] | 1% | 0.9 ± 0.14 µM | – | inhibition at 25 µM ([2]; read-out: BChE Inhibition (%)): 84.4%; absorptivity of the complex higher than that of the ligand [3]: ca. 64%; molar absorptivity of the complex formed [3]: about 26,700 M^−1 cm^−1; Molar absorptivities at the longer-wavelength band maxima, ε [3]: 16,330 M^–1cm^–1 |
| Cc1ccc(OC(=O)N(C)C)c(/C=C/c2ccc(C)s2)c1 [Compound 8, (E)-4-methyl-2-(2-(5-methylthiophen-2-yl)vinyl)phenyl dimethylcarbamate] | 25.2% | 25.5 ± 0.21 µM | 72.5% | – |
| Cc1cnc(/C=C/c2cc(F)ccc2OC(=O)N(C)C)s1 [Compound 12, (E)-4-fluoro-2-(2-(5-methylthiazol-2-yl)vinyl)phenyl dimethylcarbamate] | 23.9% | 23.4 ± 2.43 µM | 81.4% | – |
| CN(C)C(=O)Oc1ccc(F)cc1/C=C/c1cccs1 [Compound 3, (E)-4-fluoro-2-(2-(thiophen-2-yl)vinyl)phenyl dimethylcarbamate] | 12.6% | 1.48 ± 0.36 µM | 85% | absorptivity of the complex higher than that of the ligand [3]: about 26%; molar absorptivity of the complex formed [3]: 13,200 M^−1 cm^−1; Molar absorptivities at the longer-wavelength band maxima, ε [3]: 10,440 M^–1cm^–1 |
| Cc1cnc(/C=C/c2cc(Cl)ccc2OC(=O)N(C)C)s1 [Compound 13, (E)-4-chloro-2-(2-(5-methylthiazol-2-yl)vinyl)phenyl dimethylcarbamate] | 37.5% | 3.77 ± 0.13 µM | – | inhibition at 50 µM ([2]; read-out: BChE Inhibition (%)): 84.1% |
